Source: patent publication US9175013B2, “Fused aminodihydrothiazine derivatives” (Eisai R&D Management Co., Ltd., priority 2011, dated 2015)
Like-named read-outs stand apart in the source and are kept apart here.

Tests used:
[1] = Rat in vivo CNS penetration: plasma, brain and CSF concentrations by LC-MS/MS; conditions: male, Sprague Dawley, po, 10 mg/kg, 10 mg/kg p.o.; for concentration at 2 h / Kp at 2 h: 2 h post-dose; for concentration at 4 h / Kp at 4 h: 4 h post-dose; for concentration at 6 h / Kp at 6 h: 6 h post-dose; for concentration at 8 h / Kp at 8 h: 8 h post-dose
Description: Rat In Vivo CNS Penetration Male Sprague Dawley rats were acquired from Charles River UK Ltd. (Margate, UK) and housed according to UK Home Office guidelines. Drugs were made up to the appropriate concentrations in 0.5% methyl cellulose. Animals were dosed orally (2 mL/kg) by gavage at the doses outlined in Tables 1 to 4 below. At the time points post-dosing, specified in the Tables 1 to 4 below the animals were administered an i.p. injection of sodium pentobarbitone (approximately 330 mg/kg for terminal anaesthesia). Using a guillotine, the animals were decapitated and trunk blood collected into 15 ml Falcon tubes containing 100 IU heparin. Blood was vortexed followed by centrifugation at 6000 rpm, 4° C. for 5 minutes. Plasma was collected for DMPK and ELISA assays and stored at −80° C. until use. Brains were dissected out and divided along the midline, weighed and stored at −80° C. until further use. Method for Analysis of Plasma, Brain and CSF Samples Test compound was prepared as a 1 mg free base/mL solution in DMSO, vortexed and sonicated for 5 min. The 1 mg/mL DMSO solution was diluted to 10 and 30 μg/mL acetonitrile stocks, by adding 10 μL to 990 μL acetonitrile and 30 μL to 970 acetonitrile, respectively. The 10 and 30 μg/mL acetonitrile stocks were then serially diluted 1:9 (v/v) (100 μL stock into 900 μL acetonitrile) to give the following solutions: 0.003, 0.01, 0.03, 0.1, 0.3, 1, 3, 10 and 30 μg/mL acetonitrile. Control male Sprague Dawley rat plasma and the study plasma samples were stored at −80° C. until the day of analysis when they were thawed at room temperature. Control plasma was centrifuged (2,000 g for 10 min) and aliquoted (90 μL) into eppendorf tubes for preparation of standards and blank samples. Study samples were previously aliquoted (100 μL) into eppendorf tubes immediately following collection of the plasma. An aliquot (10 μL) of the appropriate acetonitrile stock was added to the control plasma (to give a final volume of 100 μL) to give the required calibration standards covering the range 1-3000 ng/mL. Double blank and blank samples were prepared by adding 10 μL of acetonitrile to 90 μL of blank plasma. Control male Sprague Dawley rat brain and the study brain samples were weighed after collection and stored at −80° C. until the day of analysis when they were thawed at room temperature. Once thawed brains were diluted with water (4 mL per gram of tissue) and homogenised using a mechanical homogeniser. An aliquot (100 μL) of each study sample was taken into Micronics tubes ready for analysis and sufficient aliquots (90 μL) of control brain homogenate prepared for preparation of standards and blanks. An aliquot (10 μL) of the appropriate acetonitrile stocks was added to the control brain homogenate (to give a final volume of 100 μL) to give the required calibration standards covering the range 1.5-5000 ng/g. Double blank and blank samples were prepared by adding 10 μL of acetonitrile to 90 μL of blank brain homogenate. Each plasma and brain homogenate sample, standard and blank (100 μL) was extracted with an aliquot (300 μL) of acetonitrile (containing 0.1% formic acid and 100 ng/mL of an appropriate internal standard). Double blanks were extracted with an aliquot (300 μL) of acetonitrile containing 0.1% formic acid). All samples, standards and blanks were then vortex mixed and centrifuged (2000 g for 15 min). An aliquot (50 μL) of the resulting supernatant was then taken into a 2 mL 96-deep well plate and diluted with acetonitrile:water (50:50 v/v) (150 μL) ready for analysis by a specific LC-MS/MS method. Control male Sprague Dawley rat CSF and the study CSF samples were stored at −80° C. until the day of analysis when they were thawed at room temperature. An aliquot (50 μL) of each study sample was taken into Micronics tubes ready for analysis and sufficient aliquots (45 μL) of control CSF prepared for preparation of standards and blanks. […]

[2] = Human liver microsomal stability assay; assay type: in vitro ADME; conditions: 0.1 μmol/L compound, 30 min, 37° C., NADPH generating system
Description: Human Liver Microsomal Stability Assay The compound was dissolved in DMSO to prepare 1 mmol/L DMSO solution. The DMSO solution was diluted with distilled water to prepare 1 μmol/L compound dosing solution (DMSO conc.: 0.1%). 105 μL of reaction buffer (1 mol/L phosphate buffer (pH 7.4)/1 mmol/L EDTA (pH 7.4)/distilled water=1/1/5, v/v/v), 15 μL of 1 μmol/L compound dosing solution, and 15 μL of rat or human liver microsomes (5 mg/mL) were mixed, and preincubated for 5 min at 37° C. Metabolic reaction was initiated by adding 15 μL of NADPH generating system (3.3 mmol/L β-NADPH+, 80 mmol/L glucose 6-phosphate, 1 unit/mL glucose 6-phosphate dehydrogenase, 60 mmol/L MgCl2). For the control sample, NADPH generating system was replaced with 60 mmol/L MgCl2. The 150 μL of reaction mixture (final compound conc.: 0.1 μmol/L, final DMSO conc.: 0.01%) was incubated for 30 min at 37° C., and the reaction was terminated by adding 150 μL of methanol/acetonitrile solution containing an appropriate internal standard compound. The sample was vortexed and centrifuged, and obtained supernatant was subject to LC/MS analysis.

[3] = CSF, CSF concentration, read-out: [CSF]
[4] = brain, total brain concentration, read-out: [Br]
[5] = brain, unbound brain, [Br] x Br Fu, read-out: [Bru]
[6] = plasma, total plasma concentration, read-out: [Pl]
[7] = plasma, unbound plasma, [Pl] x Pl Fu, read-out: [Plu]

Question: Which results are given for COc1cnc(C(=O)Nc2cc(F)c(F)c([C@]34CO[C@H](CF)[C@H]3CSC(N)=N4)c2)cn1 [Example 4, N-(3-((4aS,5S,7aS)-2-amino-5-(fluoromethyl)-4a,5,7,7a-tetrahydro-4H-furo[3,4-d][1,3]thiazin-7a-yl)-4,5-difluorophenyl)-5-methoxypyrazine-2-carboxamide]?
Answer: concentration at 2 h [1, 3]: 33 nM; Kp at 2 h ([1]; CSF, read-out: CSF:Plu): 0.6; concentration at 4 h [1, 3]: 40 nM; Kp at 4 h ([1]; CSF, read-out: CSF:Plu): 0.6; concentration at 6 h [1, 3]: 13 nM; Kp at 6 h ([1]; CSF, read-out: CSF:Plu): 0.6; concentration at 8 h [1, 3]: 8 nM; Kp at 8 h ([1]; CSF, read-out: CSF:Plu): 0.6; Kp at 2 h ([1]; brain, read-out: Brtot:Pltot): 3.8; Kp at 2 h ([1]; brain, read-out: Bru:Plu): 0.6; concentration at 2 h [1, 4]: 1470 nM; concentration at 2 h [1, 5]: 31 nM; Kp at 4 h ([1]; brain, read-out: Brtot:Pltot): 3.4; Kp at 4 h ([1]; brain, read-out: Bru:Plu): 0.5; concentration at 4 h [1, 4]: 1620 nM; concentration at 4 h [1, 5]: 34 nM; Kp at 6 h ([1]; brain, read-out: Brtot:Pltot): 3.8; Kp at 6 h ([1]; brain, read-out: Bru:Plu): 0.6; concentration at 6 h [1, 4]: 609 nM; concentration at 6 h [1, 5]: 13 nM; Kp at 8 h ([1]; brain, read-out: Brtot:Pltot): 3.7; Kp at 8 h ([1]; brain, read-out: Bru:Plu): 0.6; concentration at 8 h [1, 4]: 385 nM; concentration at 8 h [1, 5]: 8 nM; concentration at 2 h [1, 6]: 392 nM; concentration at 2 h [1, 7]: 51 nM; concentration at 4 h [1, 6]: 482 nM; concentration at 4 h [1, 7]: 63 nM; concentration at 6 h [1, 6]: 162 nM; concentration at 6 h [1, 7]: 21 nM; concentration at 8 h [1, 6]: 105 nM; concentration at 8 h [1, 7]: 14 nM; HLM stability: percentage of parent remaining upon 30 minute incubation with human liver microsomes [2]: 78.6%

Question: What does the source list for COc1cnc(C(=O)Nc2ccc(F)c([C@]34CO[C@H](CF)[C@H]3CSC(N)=N4)c2)cn1 [Example 2, N-(3-((4aS,5S,7aS)-2-amino-5-(fluoromethyl)-4a,5,7,7a-tetrahydro-4H-furo[3,4-d][1,3]thiazin-7a-yl)-4-fluorophenyl)-5-methoxypyrazine-2-carboxamide]?
Answer: concentration at 2 h [1, 3]: 133 nM; Kp at 2 h ([1]; CSF, read-out: CSF:Plu): 0.6; concentration at 4 h [1, 3]: 201 nM; Kp at 4 h ([1]; CSF, read-out: CSF:Plu): 1.2; concentration at 6 h [1, 3]: 60 nM; Kp at 6 h ([1]; CSF, read-out: CSF:Plu): 0.7; concentration at 8 h [1, 3]: 68 nM; Kp at 8 h ([1]; CSF, read-out: CSF:Plu): 1.2; Kp at 2 h ([1]; brain, read-out: Brtot:Pltot): 2.1; Kp at 2 h ([1]; brain, read-out: Bru:Plu): 0.6; concentration at 2 h [1, 4]: 1780 nM; concentration at 2 h [1, 5]: 118 nM; Kp at 4 h ([1]; brain, read-out: Brtot:Pltot): 2.1; Kp at 4 h ([1]; brain, read-out: Bru:Plu): 0.5; concentration at 4 h [1, 4]: 1340 nM; concentration at 4 h [1, 5]: 88 nM; Kp at 6 h ([1]; brain, read-out: Brtot:Pltot): 2; Kp at 6 h ([1]; brain, read-out: Bru:Plu): 0.5; concentration at 6 h [1, 4]: 703 nM; concentration at 6 h [1, 5]: 46 nM; Kp at 8 h ([1]; brain, read-out: Brtot:Pltot): 2.1; Kp at 8 h ([1]; brain, read-out: Bru:Plu): 0.6; concentration at 8 h [1, 4]: 479 nM; concentration at 8 h [1, 5]: 32 nM; concentration at 2 h [1, 6]: 850 nM; concentration at 2 h [1, 7]: 214 nM; concentration at 4 h [1, 6]: 645 nM; concentration at 4 h [1, 7]: 163 nM; concentration at 6 h [1, 6]: 353 nM; concentration at 6 h [1, 7]: 89 nM; concentration at 8 h [1, 6]: 224 nM; concentration at 8 h [1, 7]: 56 nM; HLM stability: percentage of parent remaining upon 30 minute incubation with human liver microsomes [2]: 82.0%
